From patent US5593984A, “Cephalosporin derivatives” (Yuhan Corporation, priority 1992, dated 1997)
In brackets after ≈: the same amount, converted by molar mass.

What was measured:
Type in all cases: cell-based
[1] = tested on: Staph. aureus C-57; assay: MIC by agar dilution, Staph. aureus C-57; settings: Staphylococcus aureus, C57, 17 h, Mueller-Hinton agar, read-out: Minimal Inhibitory Concentration (MIC)
Procedure, shortened: (§1)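 Agar dilution in Mueller-Hinton agar with two-fold compound dilutions. Each strain is inoculated at 10^6 CFU per ml and incubated at 35°-37° C. for 17±1 hours. Ceftazidime and cefotaxime serve as controls.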

[2] = tested on: Staph. aureus C-5113; assay: MIC by agar dilution, Staph. aureus C-5113; settings: Staphylococcus aureus, C5113, 17 h, Mueller-Hinton agar, read-out: Minimal Inhibitory Concentration (MIC)
Procedure, shortened: as §1

[3] = tested on: E. coli No. 29; assay: MIC by agar dilution, E. coli No. 29; settings: Escherichia coli, 17 h; E. coli No. 29; agar dilution, Mueller-Hinton agar; read-out: Minimal Inhibitory Concentration (MIC)
Procedure, shortened: as §1

[4] = tested on: S. epidermidis ATCC 12228; assay: MIC by agar dilution, S. epidermidis ATCC 12228; settings: Staphylococcus epidermidis, ATCC12228, 17 h; S. epidermidis ATCC 12228; agar dilution, Mueller-Hinton agar; read-out: Minimal Inhibitory Concentration (MIC)
Procedure, shortened: as §1

[5] = tested on: Ent. aerogenes IFO 12979; assay: MIC by agar dilution, Ent. aerogenes IFO 12979; settings: Klebsiella aerogenes, IFO12979, 17 h, Mueller-Hinton agar, read-out: Minimal Inhibitory Concentration (MIC)
Procedure, shortened: as §1

[6] = tested on: Ps. aeruginosa DY-2; assay: MIC by agar dilution, Ps. aeruginosa DY-2; settings: Pseudomonas aeruginosa, DY2, 17 h; Ps. aeruginosa DY-2; agar dilution, Mueller-Hinton agar; read-out: Minimal Inhibitory Concentration (MIC)
Procedure, shortened: as §1

[7] = tested on: Staph. aureus Smith; assay: MIC by agar dilution, Staph. aureus Smith; settings: Staphylococcus aureus, 17 h, Mueller-Hinton agar, read-out: Minimal Inhibitory Concentration (MIC)
Procedure, shortened: as §1

[8] = tested on: Ps. aeruginosa ATCC 10145; assay: MIC by agar dilution, Ps. aeruginosa ATCC 10145; settings: Pseudomonas aeruginosa, ATCC10145, 17 h, Mueller-Hinton agar, read-out: Minimal Inhibitory Concentration (MIC)
Procedure, shortened: as §1

[9] = tested on: Staph. aureus C-5216; assay: MIC by agar dilution, Staph. aureus C-5216; settings: Staphylococcus aureus, C5216, 17 h, Mueller-Hinton agar, read-out: Minimal Inhibitory Concentration (MIC)
Procedure, shortened: as §1

[10] = tested on: Ps. aeruginosa NCTC 10490; assay: MIC by agar dilution, Ps. aeruginosa NCTC 10490; settings: Pseudomonas aeruginosa, NCTC10490, 17 h, Mueller-Hinton agar, read-out: Minimal Inhibitory Concentration (MIC)
Procedure, shortened: as §1

[11] = tested on: Ser. marcescens IFO 12648; assay: MIC by agar dilution, Ser. marcescens IFO 12648; settings: Serratia marcescens, IFO12648, 17 h; Ser. marcescens IFO 12648; agar dilution, Mueller-Hinton agar; read-out: Minimal Inhibitory Concentration (MIC)
Procedure, shortened: as §1

[12] = tested on: Staph. aureus ATCC 6538P; assay: MIC by agar dilution, Staph. aureus ATCC 6538P; settings: Staphylococcus aureus, ATCC6538P, 17 h; Staph. aureus ATCC 6538P; agar dilution, Mueller-Hinton agar; read-out: Minimal Inhibitory Concentration (MIC)
Procedure, shortened: as §1

[13] = tested on: Ent. cloacae IFO 13535; assay: MIC by agar dilution, Ent. cloacae IFO 13535; settings: Enterobacter cloacae, IFO13535, 17 h; Ent. cloacae IFO 13535; agar dilution, Mueller-Hinton agar; read-out: Minimal Inhibitory Concentration (MIC)
Procedure, shortened: as §1

[14] = tested on: M. morganii DY-1; assay: MIC by agar dilution, M. morganii DY-1; settings: Morganella morganii, DY1, 17 h; M. morganii DY-1; agar dilution, Mueller-Hinton agar; read-out: Minimal Inhibitory Concentration (MIC)
Procedure, shortened: as §1

[15] = tested on: Prov. stuartii IFO 12930; assay: MIC by agar dilution, Prov. stuartii IFO 12930; settings: Providencia stuartii, IFO12930, 17 h, Mueller-Hinton agar, read-out: Minimal Inhibitory Concentration (MIC)
Procedure, shortened: as §1

[16] = tested on: E. coli NIHJ JC-2; assay: MIC by agar dilution, E. coli NIHJ JC-2; settings: Escherichia coli, NIHJJC2, 17 h; E. coli NIHJ JC-2; agar dilution, Mueller-Hinton agar; read-out: Minimal Inhibitory Concentration (MIC)
Procedure, shortened: as §1

[17] = tested on: K. pneumoniae NCTC 9632; assay: MIC by agar dilution, K. pneumoniae NCTC 9632; settings: Klebsiella pneumoniae, NCTC9632, 17 h; K. pneumoniae NCTC 9632; agar dilution, Mueller-Hinton agar; read-out: Minimal Inhibitory Concentration (MIC)
Procedure, shortened: as §1

[18] = tested on: E. coli DY-1; assay: MIC by agar dilution, E. coli DY-1; settings: Escherichia coli, DY1, 17 h; E. coli DY-1; agar dilution, Mueller-Hinton agar; read-out: Minimal Inhibitory Concentration (MIC)
Procedure, shortened: as §1

[19] = tested on: P. vulgaris NCTC 8313; assay: MIC by agar dilution, P. vulgaris NCTC 8313; settings: Proteus vulgaris, NCTC8313, 17 h; P. vulgaris NCTC 8313; agar dilution, Mueller-Hinton agar; read-out: Minimal Inhibitory Concentration (MIC)
Procedure, shortened: as §1

[20] = tested on: B. subtilis ATCC 6633; assay: MIC by agar dilution, B. subtilis ATCC 6633; settings: Bacillus subtilis, ATCC6633, 17 h; B. subtilis ATCC 6633; agar dilution, Mueller-Hinton agar; read-out: Minimal Inhibitory Concentration (MIC)
Procedure, shortened: as §1

MIC [1] [µg/mL] | MIC [2] [µg/mL] | MIC [3] [µg/mL] | MIC [4] [µg/mL] | MIC [5] [µg/mL] | MIC [6] [µg/mL] | MIC [7] [µg/mL] | MIC [8] [µg/mL] | MIC [9] [µg/mL] | MIC [10] [µg/mL] | MIC [11] [µg/mL] | MIC [12] [µg/mL] | MIC [13] [µg/mL] | MIC [14] [µg/mL] | MIC [15] [µg/mL] | MIC [16] [µg/mL] | MIC [17] [µg/mL] | MIC [18] [µg/mL] | MIC [19] [µg/mL] | MIC [20] [µg/mL] | Compound
50 (≈ 89.7 µM) | 1.56 (≈ 2.8 µM) | 0.025 (≈ 0.0448 µM) | 0.1 (≈ 0.179 µM) | 0.05 (≈ 0.0897 µM) | 0.25 (≈ 0.448 µM) | 0.78 (≈ 1.4 µM) | 3.13 (≈ 5.61 µM) | 1.56 (≈ 2.8 µM) | 0.78 (≈ 1.4 µM) | 0.05 (≈ 0.0897 µM) | 0.2 (≈ 0.359 µM) | 0.1 (≈ 0.179 µM) | 0.1 (≈ 0.179 µM) | 0.012 (≈ 0.0215 µM) | 0.05 (≈ 0.0897 µM) | 0.05 (≈ 0.0897 µM) | 0.025 (≈ 0.0448 µM) | 0.05 (≈ 0.0897 µM) | 0.39 (≈ 0.699 µM) | CO/N=C(\C(=O)N[C@@H]1C(=O)N2C(C(=O)[O-])=C(C[n+]3ccn4c(CO)ccc4c3C)CS[C@H]12)c1csc(N)n1 [Ex. 46, 7-β-[(Z)-2-(2-aminothiazol-4-yl)-2-methoxyiminoacetamido]-3-(6-hydroxymethyl-1-methylpyrrolo[1,2-a]pyrazinium-2-yl)methyl-3-cephem-4-carboxylate]
1.56 (≈ 2.85 µM) | 0.2 (≈ 0.365 µM) | 0.05 (≈ 0.0912 µM) | 0.025 (≈ 0.0456 µM) | 0.012 (≈ 0.0219 µM) | 3.13 (≈ 5.71 µM) | 0.2 (≈ 0.365 µM) | 0.78 (≈ 1.42 µM) | 0.2 (≈ 0.365 µM) | 0.05 (≈ 0.0912 µM) | 0.1 (≈ 0.182 µM) | 0.05 (≈ 0.0912 µM) | 0.39 (≈ 0.712 µM) | 0.05 (≈ 0.0912 µM) | 0.025 (≈ 0.0456 µM) | 0.1 (≈ 0.182 µM) | 0.05 (≈ 0.0912 µM) | 0.012 (≈ 0.0219 µM) | ≤ 0.006 | 0.025 (≈ 0.0456 µM) | CO/N=C(\C(=O)N[C@@H]1C(=O)N2C(C(=O)[O-])=C(C[n+]3ccn4cccc4c3)CS[C@H]12)c1nc(N)sc1Cl [Ex. 47, 7-β-[(Z)-2-(2-amino-5-chlorothiazol-4-yl)-2-methoxyiminoacetamido]-3-(pyrrolo[1,2-a]pyrazinium-2-yl)methyl-3-cephem-4-carboxylate]
6.25 (≈ 12.1 µM) | 0.78 (≈ 1.52 µM) | 0.012 (≈ 0.0233 µM) | 0.1 (≈ 0.194 µM) | 0.012 (≈ 0.0233 µM) | 0.78 (≈ 1.52 µM) | 0.78 (≈ 1.52 µM) | 0.39 (≈ 0.758 µM) | 0.78 (≈ 1.52 µM) | 0.1 (≈ 0.194 µM) | 0.025 (≈ 0.0486 µM) | 0.39 (≈ 0.758 µM) | 0.025 (≈ 0.0486 µM) | 0.05 (≈ 0.0972 µM) | ≤ 0.006 | 0.012 (≈ 0.0233 µM) | 0.025 (≈ 0.0486 µM) | 0.025 (≈ 0.0486 µM) | 0.012 (≈ 0.0233 µM) | 0.2 (≈ 0.389 µM) | CO/N=C(\C(=O)N[C@@H]1C(=O)N2C(C(=O)[O-])=C(C[n+]3ccn4cccc4c3)CS[C@H]12)c1nsc(N)n1 [Ex. 48, 7-β-[(Z)-2-(5-amino-1,2,4-thiadiazol-3-yl)-2-methoxyiminoacetamido]-3-(pyrrolo [1,2-a]pyrazinium-2-yl)methyl-3-cephem-4-carboxylate]
1.56 (≈ 2.7 µM) | 0.39 (≈ 0.675 µM) | 0.025 (≈ 0.0433 µM) | 0.012 (≈ 0.0208 µM) | 0.05 (≈ 0.0865 µM) | 3.13 (≈ 5.41 µM) | 0.39 (≈ 0.675 µM) | 1.56 (≈ 2.7 µM) | 0.78 (≈ 1.35 µM) | 0.2 (≈ 0.346 µM) | 0.1 (≈ 0.173 µM) | 0.2 (≈ 0.346 µM) | 0.39 (≈ 0.675 µM) | 0.1 (≈ 0.173 µM) | ≤ 0.006 | 0.1 (≈ 0.173 µM) | 0.1 (≈ 0.173 µM) | ≤ 0.006 | 0.025 (≈ 0.0433 µM) | 0.1 (≈ 0.173 µM) | CO/N=C(\C(=O)N[C@@H]1C(=O)N2C(C(=O)[O-])=C(C[n+]3ccn4c(CO)ccc4c3)CS[C@H]12)c1nc(N)sc1Cl [Ex. 49, 7-β-[(Z)-2-(2-amino-5-chlorothiazol-4-yl)-2-methoxyiminoacetamido]-3-(6-hydroxymethylpyrrolo[1,2-a]-pyrazinium-2-yl)methyl-3-cephem-4-carboxylate]
